Experimental data from PubChem BioAssay AID588385 (NMMLSC, 2011).
pEC50: −log10 of the molar value. Calls of active or inactive are those of the source.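 Rule for the calls: active = EC50 at most 10 µM,% response shifting 30 points or more across doses, valid curve fit; inactive = the rest.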

target: Cell division control protein 42 homolog (Homo sapiens) (UniProt P60953); assay: wild-type Cdc42 fluorescent nucleotide binding blockers – biochemical, wildtype, bead multiplex, flow cytometry, round 1, SAR follow-up (AID 588385); conditions: GST-Cdc42 wt beads, Bodipy-GTP binding
Sequence (P60953 whole entry, looked up): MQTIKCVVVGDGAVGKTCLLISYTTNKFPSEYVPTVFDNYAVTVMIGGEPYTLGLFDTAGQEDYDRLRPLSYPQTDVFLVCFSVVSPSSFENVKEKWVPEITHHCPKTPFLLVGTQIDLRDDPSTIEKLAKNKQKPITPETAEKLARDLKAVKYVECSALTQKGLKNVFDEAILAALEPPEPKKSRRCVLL

**Q.** How did the pEC50 turn out when `O=C(NC(=S)Nc1sc2c(c1C(=O)O)CCOC2)c1ccccc1` was run?
**A.** 7.40

**Q.** With `CC1(C)Cc2c(sc(NC(=S)NC(=O)c3ccccc3Br)c2C(=O)O)CO1` as the molecule, how does the pEC50 read?
**A.** 7.04

**Q.** How did the pEC50 turn out when `CC1Cc2c(sc(NC(=S)NC(=O)c3ccccc3)c2C(=O)O)CO1` (stereo unspecified) was run?
**A.** 6.39

**Q.** With `CC1(C)Cc2c(sc(NC(=S)NC(=O)c3cccc(F)c3)c2C(=O)O)CO1` as the molecule, how does the pEC50 read?
**A.** 6.50

**Q.** How did the pEC50 turn out when `COc1ccc(C(=O)NC(=S)Nc2sc3c(c2C(=O)O)CC(C)(C)OC3)cc1` was run?
**A.** 6.30

**Q.** How did the pEC50 turn out when `CC1(C)Cc2c(sc(NC(=S)NC(=O)c3ccc(Br)cc3)c2C(=O)O)CO1` was run?
**A.** 6.34

**Q.** `CC1(C)Cc2c(sc(NC(=S)NC(=O)c3ccccc3F)c2C(=O)O)CO1` was tested. Which pEC50 did it give?
**A.** 7.10

**Q.** How did the pEC50 turn out when `COc1cccc(C(=O)NC(=S)Nc2sc3c(c2C(=O)O)CC(C)(C)OC3)c1` was run?
**A.** 7.09

**Q.** `CC1(C)CCc2sc(NC(=S)NC(=O)c3ccccc3)c(C(=O)O)c2C1` was tested. Which pEC50 did it give?
**A.** 6.77

same assay, conditions: GST-Cdc42 wt beads, Bodipy-GTP binding, at 100 µM (top of the series)

**Q.** `Cc1ccc(NC(=O)Nc2sc3c(c2C(=O)O)CCN(C)C3)cc1` was tested. Which “% response (lower = inhibition)” value did it give?
**A.** inactive

**Q.** Which “% response (lower = inhibition)” value does the source give for `CCOC(=O)c1c(NC(=O)NC(C)(C)C)sc2c1CCN(C)C2` here?
**A.** inactive

**Q.** How did the “% response (lower = inhibition)” value turn out when `CCOC(=O)c1c(NC(=O)Nc2ccc(C)cc2)sc2c1CCN(C)C2` was run?
**A.** inactive

**Q.** Which “% response (lower = inhibition)” value does the source give for `CN1CCc2c(sc(NC(=O)Nc3ccc(F)cc3)c2C(=O)O)C1` here?
**A.** inactive

**Q.** Which “% response (lower = inhibition)” value does the source give for `COC(=O)c1c(N)sc2c1CC(C)(C)OC2` here?
**A.** inactive

**Q.** How did the “% response (lower = inhibition)” value turn out when `CCOC(=O)c1c(NC(=S)NC(=O)c2ccccc2)sc2ccccc12` was run?
**A.** inactive

**Q.** How did the “% response (lower = inhibition)” value turn out when `CCOC(=O)c1c(NC(=S)Nc2ccccc2)sc2c1CC(C)(C)OC2` was run?
**A.** inactive

**Q.** `Cc1ccc(Nc2nc3sc4c(c3c(=O)o2)CCN(C)C4)cc1` was tested. Which “% response (lower = inhibition)” value did it give?
**A.** inactive

**Q.** Which “% response (lower = inhibition)” value does the source give for `COC(=O)c1c(NC(=S)NC(=O)c2ccccc2)sc2c1CC(C)(C)OC2` here?
**A.** inactive

**Q.** Which “% response (lower = inhibition)” value does the source give for `CCOC(=O)c1c(N)sc2ccccc12` here?
**A.** inactive

**Q.** For `CC1(C)Cc2c(sc(NC(=S)NC(=O)c3cccc(Br)c3)c2C(=O)O)CO1`, which “% response (lower = inhibition)” value is on record?
**A.** inactive

**Q.** How did the “% response (lower = inhibition)” value turn out when `CC1(C)Cc2c(sc(NC(=S)Nc3ccccc3)c2C(=O)O)CO1` was run?
**A.** inactive

**Q.** Which “% response (lower = inhibition)” value does the source give for `CN1CCc2c(sc3nc(Nc4ccc(F)cc4)oc(=O)c23)C1` here?
**A.** inactive

**Q.** How did the “% response (lower = inhibition)” value turn out when `CC1(C)Cc2c(sc(NC(=O)Cc3ccccc3)c2C(=O)O)CO1` was run?
**A.** inactive

**Q.** `CCOC(=O)c1c(NC(=O)Nc2ccc(F)cc2)sc2c1CCN(C)C2` was tested. Which “% response (lower = inhibition)” value did it give?
**A.** inactive

**Q.** Which “% response (lower = inhibition)” value does the source give for `CC(C)(C)OC(=O)c1c(NC(=S)NC(=O)c2ccccc2)sc2c1CCOC2` here?
**A.** inactive

**Q.** `CC1(C)Cc2c(sc(NC(=O)NC(=O)c3ccccc3)c2C(=O)O)CO1` was tested. Which “% response (lower = inhibition)” value did it give?
**A.** inactive
